Assay results as given in patent publication US20240190880A1 (THE REGENTS OF THE UNIVERSITY OF MICHIGAN, priority 2021, published 2024).

What follows are molecules tested against T1, ER (Homo sapiens, UniProt P03372) (assay: ER degradation activity, in-cell western blot analysis in T47D cells). Settings: 16 hours, Table A does not say which cell line (T47D or MCF7), read-out: Potency (DC50).
T1 construct: host or cells: T47D and MCF7 human breast cancer cells
T1 sequence (P03372 1-595): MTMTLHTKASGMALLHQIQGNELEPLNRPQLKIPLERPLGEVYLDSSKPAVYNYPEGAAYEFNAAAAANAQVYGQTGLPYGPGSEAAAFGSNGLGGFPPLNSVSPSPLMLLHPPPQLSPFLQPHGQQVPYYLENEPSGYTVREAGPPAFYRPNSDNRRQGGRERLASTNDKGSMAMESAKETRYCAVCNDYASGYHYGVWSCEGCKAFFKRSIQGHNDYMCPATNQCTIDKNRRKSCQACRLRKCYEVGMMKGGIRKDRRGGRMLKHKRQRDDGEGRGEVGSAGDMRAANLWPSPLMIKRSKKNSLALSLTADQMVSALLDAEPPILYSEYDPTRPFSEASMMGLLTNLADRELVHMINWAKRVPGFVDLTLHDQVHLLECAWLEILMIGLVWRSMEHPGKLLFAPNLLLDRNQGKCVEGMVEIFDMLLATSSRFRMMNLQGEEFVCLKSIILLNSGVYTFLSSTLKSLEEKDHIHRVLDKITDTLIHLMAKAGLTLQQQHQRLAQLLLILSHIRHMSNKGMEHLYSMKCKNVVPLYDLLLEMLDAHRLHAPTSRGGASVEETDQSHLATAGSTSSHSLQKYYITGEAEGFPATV
Assay type: cell-based
Summary of the method: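 Read-out is near-infrared fluorescence from an in-cell western, expressed as ER percentage relative to untreated and DMSO controls taken as 100%. T47D breast cancer cells received compound for 16 h in 0.5% DMSO.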

| Structure (SMILES) | DC50 |
| --- | --- |
| O=C1CCC(N2C(=O)c3cc4c(cc3C2=O)CN(C(=O)CN2CC3(C2)CN(c2ccc(C5=C(c6ccc(F)cc6)CCCc6cc(O)ccc65)cc2)C3)C4)C(=O)N1 (stereo not shown) [E 49, 2-(2,6-dioxopiperidin-3-yl)-6-(2-(6-(4-(8-(4-fluorophenyl)-3-hydroxy-6,7-dihydro-5H-benzo[7]annulen-9-yl)phenyl)-2,6-diazaspiro[3.3]heptan-2-yl)acetyl)-6,7-dihydropyrrolo[3,4-f]isoindole-1,3(2H,5H)-dione] | 10 to 100 nM |
| C[C@@H]1Cc2c([nH]c3ccccc23)[C@@H](c2c(F)cc(N3CCC(CN4CCC(C(=O)N5Cc6cc7c(cc6C5)C(=O)N(C5CCC(=O)NC5=O)C7=O)CC4)C3)cc2F)N1CC(F)F (stereo partly drawn) [E 57, 6-(1-((1-(4-((1R,3R)-2-(2,2-difluoroethyl)-3-methyl-2,3,4,9-tetrahydro-1H-pyrido[3,4-b]indol-1-yl)-3,5-difluorophenyl)pyrrolidin-3-yl)methyl)piperidine-4-carbonyl)-2-(2,6-dioxopiperidin-3-yl)-6,7-dihydropyrrolo[3,4-f]isoindole-1,3(2H,5H)-dione] | < 10 nM |
| O=C1CCC(N2C(=O)c3cc4c(cc3C2=O)CN(CC(=O)N2CCC3(CC2)CCN(c2ccc([C@@H]5c6ccc(O)cc6CC[C@@H]5c5ccc(F)cc5)cn2)CC3)C4)C(=O)N1 (mixture of isomers) [E 185, Rac-2-(2,6-dioxopiperidin-3-yl)-6-(2-(9-(5-((1S,2S)-2-(4-fluorophenyl)-6-hydroxy-1,2,3,4-tetrahydronaphthalen-1-yl)pyridin-2-yl)-3,9-diazaspiro[5.5]undecan-3-yl)-2-oxoethyl)-6,7-dihydropyrrolo[3,4-f]isoindole-1,3(2H,5H)-dione] | > 100 nM |
| O=C1CCC(N2C(=O)c3cc4c(cc3C2=O)CN(CCN2CCC3(CC2)CCN(c2ccc([C@@H]5c6ccc(O)cc6CC[C@@H]5c5ccccc5)cc2)CC3)C4)C(=O)N1 (mixture of isomers) [E 268, rac-2-(2,6-dioxopiperidin-3-yl)-6-(2-(9-(4-((1R,2S)-6-hydroxy-2-phenyl-1,2,3,4-tetrahydronaphthalen-1-yl)phenyl)-3,9-diazaspiro[5.5]undecan-3-yl)ethyl)-6,7-dihydropyrrolo[3,4-f]isoindole-1,3(2H,5H)-dione] | 10 to 100 nM |
| C[C@@H]1Cc2c([nH]c3ccccc23)[C@@H](c2c(F)cc(N3CCC(CN4CC(N5Cc6cc7c(cc6C5)C(=O)N(C5CCC(=O)NC5=O)C7)C4)CC3)cc2F)N1CC(F)F (stereo partly drawn) [E 52, 3-(6-(1-((1-(4-((1R,3R)-2-(2,2-difluoroethyl)-3-methyl-2,3,4,9-tetrahydro-1H-pyrido[3,4-b]indol-1-yl)-3,5-difluorophenyl)piperidin-4-yl)methyl)azetidin-3-yl)-1-oxo-3,5,6,7-tetrahydropyrrolo[3,4-f]isoindol-2(1H)-yl)piperidine-2,6-dione] | < 10 nM |
| O=C1CCC(N2C(=O)c3cc4c(cc3C2=O)CN(CCN2CC3(CCN(c5ccc([C@@H]6c7ccc(O)cc7CC[C@@H]6c6ccccc6)cc5)CC3)C2)C4)C(=O)N1 (mixture of isomers) [E 267, rac-2-(2,6-dioxopiperidin-3-yl)-6-(2-(7-(4-((1R,2S)-6-hydroxy-2-phenyl-1,2,3,4-tetrahydronaphthalen-1-yl)phenyl)-2,7-diazaspiro[3.5]nonan-2-yl)ethyl)-6,7-dihydropyrrolo[3,4-f]isoindole-1,3(2H,5H)-dione] | 10 to 100 nM |
| O=C1CCC(N2C(=O)c3cc4c(cc3C2=O)CN([C@H]2CC[C@H](NC3CCN(c5ccc([C@@H]6c7ccc(O)cc7CC[C@@H]6c6ccccc6)cc5)CC3)CC2)C4)C(=O)N1 (stereo partly drawn) [E 335, 2-(2,6-dioxopiperidin-3-yl)-6-((1R,4r)-4-((1-(4-((1R,2S)-6-hydroxy-2-phenyl-1,2,3,4-tetrahydronaphthalen-1-yl)phenyl)piperidin-4-yl)amino)cyclohexyl)-6,7-dihydropyrrolo[3,4-f]isoindole-1,3(2H,5H)-dione] | > 100 nM |
| C[C@@H]1Cc2c([nH]c3ccccc23)[C@@H](c2c(F)cc(N3CC4(CCCN(CC(=O)N5Cc6cc7c(cc6C5)C(=O)N(C5CCC(=O)NC5=O)C7=O)C4)C3)cc2F)N1CC(F)F (stereo partly drawn) [E 105, 6-(2-(2-(4-((1R,3R)-2-(2,2-difluoroethyl)-3-methyl-2,3,4,9-tetrahydro-1H-pyrido[3,4-b]indol-1-yl)-3,5-difluorophenyl)-2,6-diazaspiro[3.5]nonan-6-yl)acetyl)-2-(2,6-dioxopiperidin-3-yl)-6,7-dihydropyrrolo[3,4-f]isoindole-1,3(2H,5H)-dione] | > 100 nM |
| O=C1CCC(N2C(=O)c3cc4c(cc3C2=O)CN(CC(=O)N2CCCC(Oc3ccc([C@@H]5c6ccc(O)cc6CC[C@@H]5c5ccccc5)cc3)C2)C4)C(=O)N1 (mixture of isomers) [E 21, Rac-2-(2,6-dioxopiperidin-3-yl)-6-(2-(3-(4-((1R,2S)-6-hydroxy-2-phenyl-1,2,3,4-tetrahydronaphthalen-1-yl)phenoxy)piperidin-1-yl)-2-oxoethyl)-6,7-dihydropyrrolo[3,4-f]isoindole-1,3(2H,5H)-dione] | > 100 nM |
| O=C1CCC(N2C(=O)c3cc4c(cc3C2=O)CN(CC(=O)N2CCC3(CC2)CCN(c2ccc([C@@H]5c6ccc(O)cc6CC[C@@H]5c5ccccc5)cc2)CC3)CC4)C(=O)N1 (mixture of isomers) [E 172, rac-2-(2,6-dioxopiperidin-3-yl)-6-(2-(9-(4-((1R,2S)-6-hydroxy-2-phenyl-1,2,3,4-tetrahydronaphthalen-1-yl)phenyl)-3,9-diazaspiro[5.5]undecan-3-yl)-2-oxoethyl)-5,6,7,8-tetrahydro-1H-pyrrolo[3,4-g]isoquinoline-1,3(2H)-dione] | 10 to 100 nM |

Results, then the molecule that gave them:

| DC50 | Structure (SMILES) |
| --- | --- |
| < 10 nM | O=C1CCC(N2Cc3cc4c(cc3C2=O)CN(C(=O)[C@H]2CC[C@H](N3CC(Nc5ccc([C@@H]6c7ccc(O)cc7CC[C@@H]6c6ccccc6)cc5)C3)CC2)C4)C(=O)N1 (single isomer, unassigned) [E 360] |
| > 100 nM | C[C@@H]1Cc2c([nH]c3ccccc23)[C@@H](c2c(F)cc(C3CCN(C[C@H]4CC[C@H](N5Cc6cc7c(cc6C5)C(=O)N(C5CCC(=O)NC5=O)C7=O)CC4)CC3)cc2F)N1CC(F)F (stereo partly drawn) [E 366, 6-((1R,4r)-4-((4-(4-((1R,3R)-2-(2,2-difluoroethyl)-3-methyl-2,3,4,9-tetrahydro-1H-pyrido[3,4-b]indol-1-yl)-3,5-difluorophenyl)piperidin-1-yl)methyl)cyclohexyl)-2-(2,6-dioxopiperidin-3-yl)-6,7-dihydropyrrolo[3,4-f]isoindole-1,3(2H,5H)-dione] |

Same assay, conditions: compounds 16 hours, Table A does not say whether T47D or MCF7, read-out: Potency (DC50)

| DC50 | Structure (SMILES) |
| --- | --- |
| > 100 nM | C[C@@H]1Cc2cc(O)ccc2[C@@H](c2c(F)cc(C(=O)N3CCC4(CC3)CC(CN3Cc5cc6c(cc5C3)C(=O)N(C3CCC(=O)NC3=O)C6=O)C4)cc2F)N1CC(F)F (stereo partly drawn) [E 465, 6-((7-(4-((1S,3R)-2-(2,2-difluoroethyl)-6-hydroxy-3-methyl-1,2,3,4-tetrahydroisoquinolin-1-yl)-3,5-difluorobenzoyl)-7-azaspiro[3.5]nonan-2-yl)methyl)-2-(2,6-dioxopiperidin-3-yl)-6,7-dihydropyrrolo[3,4-f]isoindole-1,3(2H,5H)-dione] |
| 10 to 100 nM | O=C1CCC(N2C(=O)c3cc4c(cc3C2=O)CN(C2CCN(C(=O)[C@H]3C[C@@H](Oc5ccc([C@@H]6c7ccc(O)cc7CC[C@@H]6c6ccccc6)cc5)C3)CC2)C4)C(=O)N1 (mixture of isomers) [E 490, 2-(2,6-dioxopiperidin-3-yl)-6-(1-((1SR,3SR)-3-(4-((1R,2S)-6-hydroxy-2-phenyl-1,2,3,4-tetrahydronaphthalen-1-yl)phenoxy)cyclobutane-1-carbonyl)piperidin-4-yl)-6,7-dihydropyrrolo[3,4-f]isoindole-1,3(2H,5H)-dione] |
| 10 to 100 nM | C[C@@H]1Cc2c([nH]c3ccccc23)[C@@H](c2ccc(C3=CCC(C(=O)N4CCC(N5Cc6cc7c(cc6C5)C(=O)N(C5CCC(=O)NC5=O)C7=O)CC4)CC3)cc2F)N1CC(C)(C)F (stereo partly drawn) [E 481, 2-(2,6-dioxopiperidin-3-yl)-6-(1-(3′-fluoro-4′-((1R,3R)-2-(2-fluoro-2-methylpropyl)-3-methyl-2,3,4,9-tetrahydro-1H-pyrido[3,4-b]indol-1-yl)-2,3,4,5-tetrahydro-[1,1′-biphenyl]-4-carbonyl)piperidin-4-yl)-6,7-dihydropyrrolo[3,4-f]isoindole-1,3(2H,5H)-dione] |
| 10 to 100 nM | O=C1CCC(N2Cc3cc4c(cc3C2=O)CN(C[C@H]2CC[C@H](C(=O)N3CC(Oc5ccc([C@@H]6c7ccc(O)cc7CC[C@@H]6c6ccccc6)cc5)C3)CC2)C4)C(=O)N1 (mixture of isomers) [E 499, 3-(6-(((IRS,4SR)-4-(3-(4-((1R,2S)-6-hydroxy-2-phenyl-1,2,3,4-tetrahydronaphthalen-1-yl)phenoxy)azetidine-1-carbonyl)cyclohexyl)methyl)-1-oxo-3,5,6,7-tetrahydropyrrolo[3,4-f]isoindol-2(1H)-yl)piperidine-2,6-dione] |
